Laboratory results taken from US7384788B2, “Regulator/promoter for tunable gene expression and metabolite sensing” (priority 2003, dated 2008).
Like-named read-outs stand apart in the source and are kept apart here.

What was measured:
[1] = system: yhcRQP-luxCDABE gene fusion; experiment: Bioluminescence activation test in strain DPD2411, LB medium pH 7.0; format: cell-based, E. coli; settings: Experiment code A; for Concentration of maximum response: strain DPD2411, LB pH 7.0; for treated RLU: strain DPD2411, at concentration of maximum response; for Ratio: strain DPD2411, treated RLU/control RLU
From the text: (§1) A derivative of E. coli strain MG1655 (obtained from Prof. Douglas Berg, Washington University School of Medicine, St. Louis, […].) with the yhcS::TN<Kan> mutation was made by P1clr100Cm mediated transduction using phage grown on strain DPD2410 as a donor and selection for kanamycin resistance. The presence of the yhcS::TN<Kan> mutation in one of the resultant transductants, named DPD2433, was confirmed by PCR amplification. Plasmid pDEW655 was moved to E. coli strains MG1655 and DPD2433 by transformation, selecting for Ampicillin resistance to generate strains DPD2436 and DPD2437, respectively. The bioluminescent response of these two strains to pHBA was tested. Aliquots (50 μl) of actively growing cultures at 37° C. in LB medium that had been previously diluted, and from overnight cultures in LB medium with 150 μg/ml Ampicillin were added to 50 μl of LB medium at pH 7.0 containing pHBA as the sodium salt form. Several concentrations of pHBA were tested.
Further characterization of the signals that trigger activation of YhcS, was done using the yhcRQP-luxCDABE gene fusion containing E. coli strains DPD2411 or DPD2436. […] Several weak, aromatic acid molecules in addition to those shown in the Examples above activated expression.

[2] = system: yhcRQP-luxCDABE gene fusion; experiment: LuxArray bioluminescent response, strain DPD2411 (tolC- host); format: cell-based, E. coli; settings: for Replica 1 normalized RLU / Replica 2 normalized RLU: LB medium; for upregulation of gene fusion lux-a.pk035.c7 in LuxArray profile: pHCA 10 mM and 5 mM, CA 8 mM and 4 mM; for bioluminescent response of the yhcRQP-luxCDABE gene fusion (in words): time points other than the zero time point
[3] = system: yhcRQP-luxCDABE gene fusion; experiment: Bioluminescence response in yhcS+ strain DPD2436 (MG1655 host); format: cell-based, E. coli; settings: for Concentration of maximum response: strain DPD2436, LB pH 7.0; for treated RLU: strain DPD2436, at concentration of maximum response; for Ratio: strain DPD2436, treated RLU/control RLU
From the text: as §1, with “The presence of the yhcS::TN<Kan> mutation in one of the resultant transductants, named DPD2433, was confirmed by PCR amplification.” left out
Further characterization of the signals that trigger activation of YhcS, was done using the yhcRQP-luxCDABE gene fusion containing E. coli strains DPD2411 or DPD2436.

[4] = system: lysU-luxCDABE gene fusion; settings: for activation of acid responsive lysU-luxCDABE gene fusion (in words): concentrations tested, 100 minutes; for RLU at 100 minutes: lysU-luxCDABE, pH 7.0
From the text: (§2) Three E. coli strains, each in the same host strain but carrying different, plasmid-borne, promoter-luxCDABE fusions were used. Strain DPD2411 contains a yhcRQP-luxCDABE gene fusion as described in Example 2. Strain DPD2084 contains a yciG-luxCDABE gene fusion that has been previously described. Strain DPD3282 contains a lysU-luxCDABE gene fusion that was part of the LuxA collection of gene fusions, described in Example 2. The plasmid in this strain, pDEW558, contains an E. coli chromosomal segment between nucleotides 4350990 and 4353107 according to the E. coli genomic sequence; the orientation of the chromosomal segment is such that the lysU promoter region controls expression of luxCDABE. Each of these three strains was grown overnight in Vogel-Bonner minimal medium with 0.4% glucose as the carbon source and supplemented with L-proline, L-lysine, uracil and 25 μg/ml Ampicillin. The overnight cultures were diluted into the same medium except lacking Ampicillin and incubated at 37° C. until in mid-exponential growth. Aliquots (50 μl) of these actively growing cultures were added to 50 μl of the same medium at pH 7.0 without Ampicillin but containing various concentrations of sodium acetate or sodium salicylate in the wells of a 96 well, white microplate (Microlite, Dynex Technologies). Immediately after adding the cell culture, the bioluminescence was quantitated in a microplate luminometer in the kinetic mode.

[5] = system: yciG-luxCDABE gene fusion; settings: for activation of acid responsive yciG-luxCDABE gene fusion (in words): concentrations tested, 100 minutes; for RLU at 100 minutes: yciG-luxCDABE, pH 7.0
From the text: as §2

[6] = system: yhcRQP-luxCDABE gene fusion; settings: for activation of expression of yhcRQP-luxCDABE (in words): concentrations tested, 100 minutes; for RLU at 100 minutes: yhcRQP-luxCDABE, pH 7.0
From the text: as §2

O=C(O)c1cccc2ccccc12 [1-napthoate]
Concentration of maximum response [1]: 2.5 mM
treated RLU [1]: 29.662 RLU
Ratio [1]: 132

O=C(O)C=Cc1ccccc1 [CA, cinnamic acid]
Replica 1 normalized RLU ([2]; 4 mM CA, 0 min): 0.026 RLU
Replica 2 normalized RLU ([2]; 4 mM CA, 0 min): 0.062 RLU
Replica 1 normalized RLU ([2]; 4 mM CA, 45 min): 4.092 RLU
Replica 2 normalized RLU ([2]; 4 mM CA, 45 min): 2.928 RLU
Replica 1 normalized RLU ([2]; 4 mM CA, 90 min): 5.845 RLU
Replica 2 normalized RLU ([2]; 4 mM CA, 90 min): 4.951 RLU
Replica 1 normalized RLU ([2]; 4 mM CA, 135 min): 5.394 RLU
Replica 2 normalized RLU ([2]; 4 mM CA, 135 min): 3.678 RLU
Replica 1 normalized RLU ([2]; 8 mM CA, 0 min): 0.022 RLU
Replica 2 normalized RLU ([2]; 8 mM CA, 0 min): 0.054 RLU
Replica 1 normalized RLU ([2]; 8 mM CA, 45 min): 4.937 RLU
Replica 2 normalized RLU ([2]; 8 mM CA, 45 min): 3.405 RLU
Replica 1 normalized RLU ([2]; 8 mM CA, 90 min): 8.379 RLU
Replica 2 normalized RLU ([2]; 8 mM CA, 90 min): 6.193 RLU
Replica 1 normalized RLU ([2]; 8 mM CA, 135 min): 6.981 RLU
Replica 2 normalized RLU ([2]; 8 mM CA, 135 min): 5.746 RLU
upregulation of gene fusion lux-a.pk035.c7 in LuxArray profile [2]: several hundred-fold upregulated
bioluminescent response of the yhcRQP-luxCDABE gene fusion (in words) [2]: dramatic upregulation

O=C([O-])c1ccccc1.[Na+] [Sodium benzoate]
Concentration of maximum response ([3]; Experiment code B): 6.2 mM
treated RLU ([3]; Experiment code B): 3.759 RLU
Ratio ([3]; Experiment code B): 13
Concentration of maximum response ([3]; Experiment code C): 12.5 mM
treated RLU ([3]; Experiment code C): 8.093 RLU
Ratio ([3]; Experiment code C): 12

O=C([O-])c1ccc(O)cc1.[Na+] [Sodium pHBA]
Concentration of maximum response ([3]; Experiment code C): 50 mM
treated RLU ([3]; Experiment code C): 91.658 RLU
Ratio ([3]; Experiment code C): 145
Concentration of maximum response ([3]; Experiment code D): 50 mM
treated RLU ([3]; Experiment code D): 48.643 RLU
Ratio ([3]; Experiment code D): 248
Concentration of maximum response [1]: 25 mM
treated RLU [1]: 69.678 RLU
Ratio [1]: 302

O=C([O-])c1ccccc1O.[Na+] [Sodium salicylate]
Concentration of maximum response ([3]; Experiment code D): 6.2 mM
treated RLU ([3]; Experiment code D): 14.703 RLU
Ratio ([3]; Experiment code D): 77
activation of acid responsive lysU-luxCDABE gene fusion (in words) [4]: did not increase expression
RLU at 100 minutes ([4]; 0.6 mM salicylate): 1.3 RLU
RLU at 100 minutes ([4]; 5.0 mM salicylate): 0.89 RLU
activation of acid responsive yciG-luxCDABE gene fusion (in words) [5]: did not increase expression
RLU at 100 minutes ([5]; 0.6 mM salicylate): 0.19 RLU
RLU at 100 minutes ([5]; 5.0 mM salicylate): 0.13 RLU
activation of expression of yhcRQP-luxCDABE (in words) [6]: upregulated expression
RLU at 100 minutes ([6]; 0.6 mM salicylate): 7.9 RLU
RLU at 100 minutes ([6]; 5.0 mM salicylate): 26.0 RLU

CC(=O)[O-].[Na+] [acetate, sodium acetate]
activation of acid responsive lysU-luxCDABE gene fusion (in words) [4]: did activate
RLU at 100 minutes ([4]; 80 mM acetate): 1.4 RLU
RLU at 100 minutes ([4]; 160 mM acetate): 6.0 RLU
activation of acid responsive yciG-luxCDABE gene fusion (in words) [5]: did activate
RLU at 100 minutes ([5]; 80 mM acetate): 0.35 RLU
RLU at 100 minutes ([5]; 160 mM acetate): 0.80 RLU
activation of expression of yhcRQP-luxCDABE (in words) [6]: did not activate expression
RLU at 100 minutes ([6]; 80 mM acetate): 0.14 RLU
RLU at 100 minutes ([6]; 160 mM acetate): 0.08 RLU

CCO [ethanol]
Replica 1 normalized RLU ([2]; 3% ethanol, 0 min): 0.024 RLU
Replica 2 normalized RLU ([2]; 3% ethanol, 0 min): 0.038 RLU
Replica 1 normalized RLU ([2]; 3% ethanol, 45 min): 0.024 RLU
Replica 2 normalized RLU ([2]; 3% ethanol, 45 min): 0.029 RLU
Replica 1 normalized RLU ([2]; 3% ethanol, 90 min): 0.022 RLU
Replica 2 normalized RLU ([2]; 3% ethanol, 90 min): 0.026 RLU
Replica 1 normalized RLU ([2]; 3% ethanol, 135 min): 0.012 RLU
Replica 2 normalized RLU ([2]; 3% ethanol, 135 min): 0.014 RLU
Replica 1 normalized RLU ([2]; 5% ethanol, 0 min): 0.022 RLU
Replica 2 normalized RLU ([2]; 5% ethanol, 0 min): 0.037 RLU
Replica 1 normalized RLU ([2]; 5% ethanol, 45 min): 0.014 RLU
Replica 2 normalized RLU ([2]; 5% ethanol, 45 min): 0.017 RLU
Replica 1 normalized RLU ([2]; 5% ethanol, 90 min): 0.022 RLU
Replica 2 normalized RLU ([2]; 5% ethanol, 90 min): 0.017 RLU
Replica 1 normalized RLU ([2]; 5% ethanol, 135 min): 0.015 RLU
Replica 2 normalized RLU ([2]; 5% ethanol, 135 min): 0.014 RLU
bioluminescent response of the yhcRQP-luxCDABE gene fusion (in words) [2]: does not induce increased bioluminescence

O=C(O)C=Cc1ccc(O)cc1 [pHCA, para-hydroxycinnamic acid]
Replica 1 normalized RLU ([2]; 5 mM pHCA, 0 min): 0.056 RLU
Replica 2 normalized RLU ([2]; 5 mM pHCA, 0 min): 0.043 RLU
Replica 1 normalized RLU ([2]; 5 mM pHCA, 45 min): 10.695 RLU
Replica 2 normalized RLU ([2]; 5 mM pHCA, 45 min): 9.325 RLU
Replica 1 normalized RLU ([2]; 5 mM pHCA, 90 min): 14.276 RLU
Replica 2 normalized RLU ([2]; 5 mM pHCA, 90 min): 14.754 RLU
Replica 1 normalized RLU ([2]; 5 mM pHCA, 135 min): 13.533 RLU
Replica 2 normalized RLU ([2]; 5 mM pHCA, 135 min): 10.587 RLU
Replica 1 normalized RLU ([2]; 10 mM pHCA, 0 min): 0.056 RLU
Replica 2 normalized RLU ([2]; 10 mM pHCA, 0 min): 0.034 RLU
Replica 1 normalized RLU ([2]; 10 mM pHCA, 45 min): 9.094 RLU
Replica 2 normalized RLU ([2]; 10 mM pHCA, 45 min): 7.31 RLU
Replica 1 normalized RLU ([2]; 10 mM pHCA, 90 min): 14.314 RLU
Replica 2 normalized RLU ([2]; 10 mM pHCA, 90 min): 11.164 RLU
Replica 1 normalized RLU ([2]; 10 mM pHCA, 135 min): 15.283 RLU
Replica 2 normalized RLU ([2]; 10 mM pHCA, 135 min): 12.867 RLU
upregulation of gene fusion lux-a.pk035.c7 in LuxArray profile [2]: several hundred-fold upregulated
bioluminescent response of the yhcRQP-luxCDABE gene fusion (in words) [2]: dramatic upregulation
